Laboratory results as given in patent publication US20060014785A1, “BICYCLIC, SUBSTITUTED TRIAZOLES AS MODULATORS OF PPAR AND METHODS OF THEIR PREPARATION” (Metabolex, Inc., priority 2004, published 2006).

What was measured:
Format in all cases: cell-based
mouse PPARγ = biological target: T1, mouse PPARγ (Mus musculus, UniProt P37238); experiment: PPAR gamma transactivation (GAL4 chimeric receptor luciferase reporter) assay; details: GAL4-mPPARγ chimeric receptor, pFR-Luc reporter, HEK293T cells, 20 hours incubation; read-out: Gene Activation Assay: EC50 (<10 μM) PPAR gamma
T1 construct: expressed in transfected cells; host or cells: HEK293T
T1 sequence (P37238 238-503 limits assumed): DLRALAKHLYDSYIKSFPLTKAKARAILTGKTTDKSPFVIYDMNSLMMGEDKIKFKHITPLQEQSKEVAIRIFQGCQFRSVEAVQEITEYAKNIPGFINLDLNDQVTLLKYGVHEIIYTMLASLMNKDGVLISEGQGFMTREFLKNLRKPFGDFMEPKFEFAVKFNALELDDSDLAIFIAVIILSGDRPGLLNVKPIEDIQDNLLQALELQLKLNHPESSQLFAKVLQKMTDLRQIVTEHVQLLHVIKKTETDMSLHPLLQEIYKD
Text: (§1) Measurement of PPARγ, δ, and α Transactivation Activity.
(§2) Chimeric receptors were constructed in which the yeast transcription factor GAL4 DNA binding domain was fused to the ligand binding domain of either mouse PPARγ, mouse PPARδ or mouse PPAR α in order to assess the ability of the compounds of the present invention to activate gene expression in a PPAR-dependent manner. The chimeric receptor expression plasmids (GAL4-mPPARγ, GAL4-mPPAR δ and GAL4-PPAR α) and the reporter plasmid containing 5×GAL4 binding site (pFR-Luc, obtained from Stratagene) were transfected into HEK293T cells using the Lipofectamine 2000 reagent (Invitrogen), according to the manufacturers instructions. Six hours after transfection, the culture medium was renewed and the cells were incubated for 20 hours in presence of either 1) DMSO (vehicle), 2) a compound of the invention or 3) a reference compound for comparison. Rosiglitazone (obtained from WDF Pharma) was used as a reference compound for the PPARγassay; GW501516 (prepared as described in Sznaidman et al. Bioorg. Med. Chem. Lett. (2003) 13:1517-1521) was used as a reference compound for the PPAR δ assay and GW7647 (obtained from Sigma) was used as a reference compound for the PPAR α assay. Luciferase activity was measured as a reporter of gene expression. Luciferase activity on the cell lysates using the Steady-Glo reagent was measured according to the manufacturers instructions.

mouse PPARδ = biological target: T2, mouse PPARδ (Mus musculus, UniProt P35396); experiment: PPAR delta transactivation (GAL4 chimeric receptor luciferase reporter) assay; details: GAL4-mPPAR δ chimeric receptor, pFR-Luc reporter, HEK293T cells, 20 hours incubation; read-out: Gene Activation Assay: EC50 (<10 μM) PPAR delta
T2 construct: expressed in transfected cells; host or cells: HEK293T
T2 sequence (P35396 210-438 limits assumed): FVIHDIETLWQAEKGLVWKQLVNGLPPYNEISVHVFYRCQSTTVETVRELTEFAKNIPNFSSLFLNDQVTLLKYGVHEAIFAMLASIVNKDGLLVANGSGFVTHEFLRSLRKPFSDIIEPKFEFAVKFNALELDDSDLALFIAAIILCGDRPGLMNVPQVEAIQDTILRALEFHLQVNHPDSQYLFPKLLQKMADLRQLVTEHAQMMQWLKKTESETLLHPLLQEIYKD
Text: as §1, §2

mouse PPAR α = biological target: T3, mouse PPAR α (Mus musculus, UniProt P23204); experiment: PPAR alpha transactivation (GAL4 chimeric receptor luciferase reporter) assay; details: pFR-Luc reporter, HEK293T cells, 20 hours incubation, read-out: Gene Activation Assay: EC50 (<10 μM) PPAR alpha
T3 construct: expressed in transfected cells; host or cells: HEK293T
T3 sequence (P23204 239-466 limits assumed): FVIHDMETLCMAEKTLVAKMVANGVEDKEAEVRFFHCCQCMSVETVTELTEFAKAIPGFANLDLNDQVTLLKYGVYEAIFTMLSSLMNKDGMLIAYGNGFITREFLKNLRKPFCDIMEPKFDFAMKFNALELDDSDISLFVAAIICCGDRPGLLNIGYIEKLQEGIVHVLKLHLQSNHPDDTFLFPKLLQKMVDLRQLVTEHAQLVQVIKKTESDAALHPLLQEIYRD
Text: as §1, §2

| EC50 (mouse PPARγ) | EC50 (mouse PPARδ) | EC50 (mouse PPAR α) | SMILES |
| --- | --- | --- | --- |
| > 30 µM | < 10 µM | > 10 µM | Cc1nn(-c2ccc(C(F)(F)F)cc2)nc1COc1ccc2c(ccn2CC(=O)O)c1 [Compound 20, {5-[5-Methyl-2-(4-trifluoromethyl-phenyl)-2H-[1,2,3]triazol-4-ylmethoxy]-indol-1-yl}-acetic acid] |
| > 10 µM | < 10 µM | > 10 µM | Cc1nn(-c2ccc(C(F)(F)F)cc2)nc1COc1ccc2c(CC(=O)O)coc2c1 [Compound 160, {6-[5-Methyl-2-(4-trifluoromethyl-phenyl)-2H-[1,2,3]triazol-4-ylmethoxy]-benzofuran-3-yl}-acetic acid] |
| < 10 µM | < 10 µM | < 10 µM | Cc1nn(-c2ccc(C(F)(F)F)cc2)nc1COc1ccc2ccn(CC(=O)O)c2c1 [Compound 130, {6-[5-Methyl-2-(4-trifluoromethyl-phenyl)-2H-[1,2,3]triazol-4-ylmethoxy]-indol-1-yl}-acetic acid] |
| > 30 µM | < 10 µM | > 10 µM | Cc1nn(-c2ccc(C(F)(F)F)cc2)nc1COc1ccc2c(c1)OCC2CC(=O)O (stereo not drawn) [Compound 700, {6-[5-Methyl-2-(4-trifluoromethyl-phenyl)-2H-[1,2,3]triazol-4-ylmethoxy]-2,3-dihydro-benzofuran-3-yl}-acetic acid] |
